Patent US5795885A, “Method of inhibiting profileration of cells by administering an aminosterol compound” (priority 1995, dated 1998)
Converted amounts (≈) assume the structure as drawn.

What was measured:
NHE1β = conditions: cited from earlier work
[1] = system: chick embryo vitelline capillaries; assay: chick embryo vitelline capillary regression assay; type: in vivo; design: key to vitelline capillary regression: +: Vascular reactivity; 0: No vascular reactivity; +/-: Equivocal reactivity; conditions: for vitelline capillary regression: 60 minutes
Method: Using the chick embryo vitelline capillaries assay, compounds were tested for their ability to induce capillary regression. Each compound was applied in 0.1 ml of 15% Ficol 400 and PBS onto the embryo, and vascular regression was assessed after 60 minutes.
The 3-day chick embryo consists of an embryonic disc from which numerous vessels emerge and return, forming a "figure 8"-shaped structure--the embryo in the center with vascular loops extending outward over both poles. […] Following a lag period of around 15 minutes, the constriction of continuity between capillary and secondary vessels, generally on the "venous" side, was observed. Continued pulsatile blood flow progressed, resulting in a "swelling" of the blind tube, followed by a pinching off of the remaining connection and formation of an enclosed vascular sac resembling a "blood island." This process progressed until only the largest vessels remained intact.

[2] = system: stage 59-60 Xenopus tadpoles
human melanoma = human melanoma growth time course and cell death (Baker et al.); type: cell-based
P. aerug = assay: antibiotic activity (MIC); type: cell-based
[3] = system: L1210 lymphoblastic leukemia; assay: mouse model of L1210 leukemia; type: in vivo, C57B mice; conditions: by day 28
B16 melanoma = B16 melanoma growth in C57B mice; type: in vivo, mouse; conditions: subcutaneous administration (FIG. 6)
Method: The growth of B16 melanoma in C57B mice is dependent upon neovascularization.
Using the growth of B16 melanoma cells in C57B mice, a recognized model for the evaluation of inhibitors of angiogenesis on the growth of cancers, the effects of subcutaneous, intraperitoneal and oral administration of squalamine were evaluated.
Based on the idea that tumor growth involves both the clonal expansion of a malignant cell along with the development of a supporting vascular supply, a combination of compound 1436 with squalamine was tested to determine whether it would achieve a synergistic effect on solid tumor growth. This concept was evaluated in the B16 melanoma model.
Animals were implanted with B16 melanoma followed by treatment with compound 1436 or 1256 administered in a combined schedule or separately. […] Thus, a combination of these two compounds achieves a therapeutic benefit in tumors dependent on neovascularization that may prevent metastatic spread.

mouse IV PK study, HPLC = conditions: in vivo
Method: To assess clearance, a mouse IV PK study was performed for compound 319 and squalamine. The compound was administered i.v. and blood samples were taken every 10 minutes. The concentration of the administered steroid was determined by HPLC analysis.

[4] = system: Human ovarian carcinoma SKOV3; assay: growth inhibition in vitro (Baker et al.); type: cell-based
Method: As set forth in Table 7 below, all malignant tumors evaluated in tissue culture, endothelial cells and vascular smooth muscle cells were sensitive to inhibition. Thus, compound 1436 has application in the control of growth factor dependent proliferation of many types of tissue.
Using the assay described above, the anticancer effects of compound 1437 against several cancer lines was assessed.

fasting blood glucose = fasting blood glucose in mice; type: in vivo, Male CD-1 mice; conditions: intravenous
Method: To study the effect of steroid administrator or the NHE responsible for secretion of insulin, several of the aminosterols from shark liver were administered to fasting mice. Male CD-1 mice were assigned to one of four treatment groups. Whole blood glucose was tested using glucometer (Lifescan Glucometer II and One Touch test strips). Statistical analysis was via one-way analysis of variance (ANOVA) followed by subsequent Bonferonni's t-test.

[5] = system: PHA-stimulated human lymphocytes; assay: inhibition of mitogen (PHA)-stimulated growth of human T-cells; type: cell-based; conditions: Homo sapiens, Lymphocyte; 10 μg/ml; read-out: inhibition of PHA-stimulated human lymphocytes (% control)
Description: Results are tabulated below.

## N=C(N)NC(=O)c1nc(Cl)c(N)nc1N [Amiloride, amiloride]
NHE1β
  inhibition of NHE1β: inhibited by high concentrations

## CC(C)CCC[C@@H](C)[C@H]1CC[C@H]2[C@@H]3CC[C@H]4C[C@@H](NCCCNCCCCNCCCN)CC[C@]4(C)[C@H]3CC[C@]12C [Compound 353]
[1]; 1 μg applied
  vitelline capillary regression: +/-
[1]; in vivo
  effect on chick embryo vitelline capillaries (in words): no effect on the chick embryo capillary bed
[2]; tadpole assay
  tadpole response similar to compound 1436: produce effects like those produced by compound 1436
Human melanoma
  apoptotic cell death: apoptotic cell death has been induced
Human melanoma; FIG. 17A
  effect on growth of melanoma (time course): most pronounced over 48 hours, with less of an effect noted within the first 12 hours of incubation

## COC(=O)CCC(C)[C@H]1CCC2C3C(CC[C@@]21C)[C@@]1(C)CC[C@H](NCCN)C[C@H]1C[C@H]3O (stereo partly shown)
P. aerug
  MIC: 128 µg/mL (≈ 285 µM)

## CC(CCC(=O)O)[C@H]1CCC2C3C[C@@H](O)[C@H]4C[C@@H](NCCN)CC[C@]4(C)C3CC[C@@]21C (stereo partly shown)
P. aerug
  MIC: 128 µg/mL (≈ 294 µM)

## CC(C)CCCC(C)[C@H]1CCC2C3C(CC[C@@]21C)[C@@]1(C)CC[C@H](N)C[C@@H]1C[C@H]3O (stereo partly shown)
P. aerug
  MIC: > 256 µg/mL

## CC(CCC(=O)O)[C@H]1CCC2C3C(CC[C@@]21C)[C@@]1(C)CC[C@@H](NCCN)C[C@H]1C[C@H]3O (stereo partly shown)
P. aerug
  MIC: 64 µg/mL (≈ 147 µM)

## CC(CCC(=O)O)[C@H]1CCC2C3C(CC[C@@]21C)[C@@]1(C)CC[C@H](NCCN)C[C@H]1C[C@H]3O (stereo partly shown)
P. aerug
  MIC: 256 µg/mL (≈ 589 µM)

## CC(CCC(=O)O)[C@H]1CCC2C3CC[C@@H]4C[C@H](NCCCNCCCCNCCCN)CC[C@]4(C)C3C[C@H](O)[C@@]21C (stereo partly shown)
P. aerug
  MIC: 4 µg/mL (≈ 6.93 µM)

## COC(=O)CCC(C)[C@H]1CCC2C3CC[C@H]4C[C@@H](NCCCNCCCCNCCCN)CC[C@]4(C)C3CC[C@@]21C (stereo partly shown)
P. aerug
  MIC: 64 µg/mL (≈ 111 µM)

## CC(COS(=O)(=O)O)C(=O)CC[C@@H](C)[C@H]1CC[C@H]2[C@@H]3[C@H](O)C[C@H]4C[C@@H](NCCCNCCCCN)CC[C@]4(C)[C@H]3CC[C@]12C (stereo partly shown)
P. aerug
  MIC: 128 µg/mL (≈ 199 µM)

## CC(CCC(=O)O)[C@H]1CCC2C3CC[C@@H]4C[C@H](NCCN)CC[C@]4(C)C3C[C@H](O)[C@@]21C (stereo partly shown)
P. aerug
  MIC: 128 µg/mL (≈ 294 µM)

## COC(=O)CCC(C)[C@H]1CCC2C3C[C@@H](O)[C@H]4C[C@H](NCCCNCCCCNCCCN)CC[C@]4(C)C3CC[C@@]21C (stereo partly shown)
P. aerug
  MIC: 128 µg/mL (≈ 217 µM)

## CC(C)CCC[C@@H](C)[C@H]1CC[C@H]2[C@@H]3CC[C@H]4C[C@@H](NCCCCN)CC[C@]4(C)[C@H]3CC[C@]12C
P. aerug
  MIC: > 256 µg/mL

## COC(=O)CCC(C)[C@H]1CCC2C3CC[C@@H]4C[C@H](NCCCNCCCCNCCCN)CC[C@]4(C)C3C[C@H](O)[C@@]21C (stereo partly shown)
P. aerug
  MIC: 8 µg/mL (≈ 13.5 µM)

## CC(CCC(=O)O)[C@H]1CCC2C3C(CC[C@@]21C)[C@@]1(C)CC[C@@H](NCCCNCCCCNCCCN)C[C@H]1C[C@H]3O (stereo partly shown)
P. aerug
  MIC: 8 µg/mL (≈ 13.9 µM)

## COC(=O)CCC(C)[C@H]1CCC2C3C[C@@H](O)[C@H]4C[C@@H](NCCN)CC[C@]4(C)C3CC[C@@]21C (stereo partly shown)
P. aerug
  MIC: 64 µg/mL (≈ 143 µM)

## CC(C)CCCC(C)[C@H]1CCC2C3C(CC[C@@]21C)[C@@]1(C)CC[C@@H](NCCCNCCCCN)C[C@@H]1C[C@H]3O (stereo partly shown)
P. aerug
  MIC: 64 µg/mL (≈ 120 µM)

## N.N.[Cl][Pt][Cl] [Cisplatin, cisplatin, reference compound]
[3]
  anemia: profound anemia

## CC(C)CCCC(C)[C@H]1CCC2C3C(CC[C@@]21C)[C@@]1(C)CC[C@H](NCCCNCCCCN)C[C@@H]1C[C@H]3O (stereo partly shown)
P. aerug
  MIC: 64 µg/mL (≈ 120 µM)

## C[C@H](CCC(=O)O)[C@H]1CC[C@H]2[C@@H]3CC[C@H]4C[C@@H](NCCCNCCCCN)CC[C@]4(C)[C@H]3CC[C@]12C [Compound 319]
B16 melanoma
  control of B16 melanoma: control of B16 in C57B mice to an extent almost comparable to squalamine
Mouse IV PK study, HPLC
  pharmacokinetic clearance compared with squalamine: more rapid pharmacokinetic clearance than squalamine
[1]; 0.001 μg applied
  vitelline capillary regression: +/-
[1]; 0.01 μg applied
  vitelline capillary regression: +
[1]; 0.1 μg applied
  vitelline capillary regression: +
[1]; 1 μg applied
  vitelline capillary regression: +
[1]; 10 μg applied
  vitelline capillary regression: +
[1]; in vivo
  activity in vitelline capillary regression assay (in words): especially active
[2]; squalamine at 10 μg/ml
  tadpole tail capillary occlusion: common vascular occlusive effect

## CC(C)C(CO)(CC[C@@H](C)[C@H]1CC[C@H]2[C@@H]3[C@H](O)C[C@H]4C[C@@H](NCCCNCCCCN)CC[C@]4(C)[C@H]3CC[C@]12C)OS(=O)(=O)O (single isomer, unassigned) [Compound 1437]
[4]
  anticancer activity: found to exhibit anticancer activity
Fasting blood glucose
  hyperglycemia: caused hyperglycemia in mice
[5]
  inhibition at 10 µg/mL: 10%

## CC(C)CCC[C@@H](C)[C@H]1CC[C@H]2[C@@H]3CC[C@H]4C[C@H](NCCCCN)CC[C@]4(C)[C@H]3CC[C@]12C
P. aerug
  MIC: > 256 µg/mL

## COC(=O)CCC(C)[C@H]1CCC2C3C[C@@H](O)[C@H]4C[C@@H](NCCCNCCCCNCCCN)CC[C@]4(C)C3CC[C@@]21C (stereo partly shown)
P. aerug
  MIC: 32 µg/mL (≈ 54.2 µM)
